Data as given in US8226943B2, “Antibodies to notch receptors” (OncoMed Pharmaceuticals, Inc., priority 2008, dated 2012).

Tests used:
[1] = tested on: breast tumor xenograft line OMP-B34; assay: OMP-B34 breast tumor xenograft growth; assay type: in vivo, NOD/SCID mice; details: established tumors, 15 mg/kg once a week
Description: (§1) The 59R1 IgG2 antibody was also tested in vivo in the breast tumor xenograft lines OMP-B34, OMP-B39, OMP-B44, PE13, and UM-T1, the pancreas tumor xenograft line OMP-PN8, and the colon tumor xenograft line OMP-C8. These tumor xenograft lines were established by adhering to procedures described in Al-Hajj et al., 2003, Proc. Natl. Acad. Sci. USA, 100:3983-3988. Female NOD/SCID immuno-compromised mice 7-10 weeks old were used for the establishment of the breast tumor xenografts and male NOD/SCID mice were used for the OMP-Pn8 and OMP-C8 tumor-models (Harlan, Indianapolis, Ind.). The 59R1 IgG2 antibody was also tested in vivo in a Colo-205 colon tumor xenograft model. Female immunodeficient bg/nu XID mice on a Swiss CD-1 background were used for the Colo-205 xenograft tumor model. In case of the breast cancer models, slow-releasing estrogen pellets (0.36 mg) had to be implanted. Mice were subcutaneously injected on the right flank with 50,000 (OMP-B34, OMP-B39, OMP-B44, PE13, and UM-T1) or 1×10^7 (Colo-205) viable cells, respectively, in a mixture of PBS (without magnesium or calcium) and Matrigel at a 1:1 ratio. […] Antibodies were administered weekly and tumors measured twice weekly. […] Tumor volume was calculated as described Al-Hajj et al. (2003). Data are expressed as the mean and the mean±S.E.M. Group means were compared using Student's two-tailed, unpaired t-test. […]

T3 breast tumor cells = assay: T3 breast tumor xenograft growth; assay type: in vivo, NOD/SCID mice
Description: In certain embodiments, NOD/SCID mice injected with 50,000 PE13 or T3 breast tumor cells were treated with anti-Notch2/3 antibody 59R1 or control antibody 1B7.11 two days following cell injections. Antibodies were dosed at 10 mg/kg twice week.
In a further experiment, anti-Notch2/3 antibodies were tested for an effect on breast tumor growth. NOD/SCID mice were injected with 50,000 PE13 or T3 breast tumor cells, and tumors were allowed to grow to a size of between 65 to 200 mm^3 after which mice were randomized (n=10 per experimental group), and antibodies administration begun. Animals were treated with 15 mg/kg of either control 1B7.11 antibodies or anti-Notch2/3 59R1 antibodies twice weekly. Tumor size was measured twice weekly, and tumor volume was calculated as described (see Michieli et al., 2004).

B51 breast tumor cells = assay: B51 breast tumor recurrence after paclitaxel; assay type: in vivo, NOD-SCID mice; details: 59R1 10 mg/kg twice per week plus paclitaxel 15 mg/kg twice per week for 38 days, then antibody only
Description: B51 breast tumor cells (50,000 cells per mouse) were injected sub-cutaneously into the mammary fat pad of NOD-SCID mice. Tumors were allowed to grow for 50 days until they had reached an average volume of ˜100 mm^3. Animals were randomized (n=10/group) and treatments were initiated. One group received a control antibody (1B711) at 10 mg/kg twice per week and paclitaxel (Taxol) at 15 mg/kg twice per week and the other group received 59R1 at 10 mg/kg twice per week and paclitaxel at 15 mg/kg twice per week. Tumor volumes were measured on the indicated days. Treatments were carried out for 38 days until the tumor volumes had regressed to ˜50 mm^3, after which the paclitaxel treatments were halted and the antibody treatments continued for the duration of the experiment.

[2] = tested on: breast tumor xenograft line OMP-B39; assay: OMP-B39 breast tumor xenograft growth; assay type: in vivo, NOD/SCID mice; details: established tumors, 15 mg/kg once a week
Description: as §1

stroma of T1 tumors = assay: Microarray gene expression in stroma of treated xenograft tumors, T1; assay type: in vivo, mice; details: 59R1 vs control
[3] = tested on: hJAG1-induced Notch2 signaling; assay: Luciferase reporter assay, hJAG1-induced Notch2 signaling in Hela cells; assay type: cell-based, human; details: 40 μg/ml
Description: Luciferase reporter assays were used to assay the 59R1 antibody for its ability to block hDLL4-, hJAG1-, and hJAG2-induced Notch2 signaling.
Hela cells that stably overexpress human Notch2 were transiently transfected with firefly luciferase with a synthetic 8×CBS promoter, pSPORT6 MAML-1, and Renilla luciferase-CMV as a transfection control. Cells were incubated with either 200 ng of immobilized hJAG1 (R&D systems) or hJAG2 (R&D systems) for 16 hours and then assayed using Dual-Glo (Promega) according to the manufacturer's instructions. 59R1 IgG2 antibody was at a concentration of 40 μg/ml. The gamma secretase inhibitor (GSI) dibenzazepine (DBZ) was used as a control at 1 μM.

PE13 breast tumors = assay: Microarray analysis of PE13 breast tumors treated with taxol or 59R1 plus taxol; assay type: in vivo, mice; details: PE13, 59R1 Taxol vs. Taxol
Description: In addition to investigating the effects of 59R1 in tumors and the effect on CSC frequency, gene changes were studied following 59R1 treatment in combination with taxol. The experiment was performed in PE13 breast tumors where a decrease in CSC frequency after treatment with 59R1 alone or 59R1 plus taxol treatment had previously been observed (and described herein). Microarray analysis was performed on tumors from the same experiment where limiting dilution analyses of PE13 were carried out for CSC quantification (FIG. 19). Animals bearing PE13 breast tumors were treated three weeks with 59R1 plus taxol, control and taxol prior to harvesting for microarray analysis. Mean differential expression values for taxol vs. control and 59R1 plus taxol vs. taxol treated animals (3 animals per group) were calculated.

## 59R1: human IgG2 antibody binding Notch2 and Notch3; heavy and light chain SEQ ID NO:16 and 18; ATCC PTA-9547
[1]
  B34 breast cancer growth relative to control antibody: inhibit breast cancer growth
T3 breast tumor cells; 10 mg/kg twice week, started two days following cell injections
  T3 tumor growth compared to control: significantly reduced
T3 breast tumor cells; established tumors, 15 mg/kg twice weekly
  T3 tumor growth compared to control: significantly reduced
B51 breast tumor cells
  B51 tumor recurrence after paclitaxel treatment: recur more rapidly in the control group compared with the group treated with 59R1
[2]
  B39 breast cancer growth relative to control antibody: inhibit breast cancer growth
Stroma of T1 tumors
  Fold 1416286_at (Rgs4): −1.13
  Fold 1417466_at (Rgs5): −1.99
  Fold 1417714_x_at (Hba-al/Hba-a2): 1.42
  Fold 1418829_a_at (Eno2): 1.29
  Fold 1419302_at (Heyl): −1.07
  Fold 1420872_at (Gucy1b3): −1.01
  Fold 1420941_at (Rgs5): −1.97
  Fold 1420942_s_at (Rgs5): −1.18
  Fold 1421964_at (Notch3): −1.01
  Fold 1422789_at (Aldh1a2): −2.16
  Fold 1428361_x_at (Hba-al/Hba-a2): 1.73
  Fold 1434141_at (Gucy1a3): 1.20
  Fold 1449280_at (Esm1): 1.18
  Fold 1449632_s_at (Fkbp10): 1.07
  Fold 1451501_a_at (Ghr): −1.12
  Fold 1452590_a_at (Plac9): 1.20
  Fold 1459713_s_at (Tmem16a): −2.14
[3]
  hJAG1-induced Notch2 reporter activity: inhibit
PE13 breast tumors
  Fold BMPR1B: −4.3
  Fold BNIP3: 1.8
  Fold EGLN3: 11.9
  Fold HSPB6: −1.8
  Fold ITGAM: −2.5
  Fold LHX8: −4.4
  Fold NDRG1: 6.4
  Fold RARRES1: −2.2
  Fold RARRES3: −1.7
  Fold RBP2: −2.2
  Fold XAF1: −1.5
